Reference: PubChem BioAssay (NCI)
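Where inhibition never reached the appropriate level, the endpoint shown equals the highest concentration tested. Otherwise, values were interpolated linearly from a five-concentration, 48-hour dose response in 96-well plates. At the GI50, growth is halved. TGI: concentration producing complete growth inhibition.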

Key:
Test in all cases: NCI-60 cell line screen, 48 h
786-0 renal = tested on: 786-0 renal
COLO 205 colon = tested on: COLO 205 colon
HS 578T breast = tested on: HS 578T breast
HT29 colon = tested on: HT29 colon
LOX IMVI melanoma = tested on: LOX IMVI melanoma
NCI-H226 lung = tested on: NCI-H226 lung
OVCAR-3 ovarian = tested on: OVCAR-3 ovarian
SF-268 CNS = tested on: SF-268 CNS
U251 CNS = tested on: U251 CNS
RPMI-8226 leukemia = tested on: RPMI-8226 leukemia

## Cc1ccc([N+](=O)[O-])cc1NC(=O)C(=O)C1CCC2=C(Sc3ccccc3N2)C1=O (stereo not drawn)
786-0 renal
  TGI: > 100 µM
COLO 205 colon
  TGI: > 100 µM
HS 578T breast
  TGI: > 100 µM
HT29 colon
  TGI: > 100 µM
LOX IMVI melanoma
  TGI: > 100 µM
NCI-H226 lung
  TGI: > 100 µM
OVCAR-3 ovarian
  TGI: 90.8 µM
SF-268 CNS
  TGI: > 100 µM
U251 CNS
  TGI: > 100 µM

## COc1cc(C2(C)SCCCS2)c(I)c(OC)c1OC
786-0 renal
  TGI: > 100 µM
COLO 205 colon
  TGI: > 100 µM
HT29 colon
  TGI: > 100 µM
LOX IMVI melanoma
  TGI: > 100 µM
NCI-H226 lung
  TGI: > 100 µM
OVCAR-3 ovarian
  TGI: > 100 µM
RPMI-8226 leukemia
  TGI: > 100 µM
SF-268 CNS
  TGI: > 100 µM
U251 CNS
  TGI: > 100 µM

## CN(C)c1ccc(/C=C2\C[C@H]3[C@@H]4CCc5cc(O)ccc5[C@H]4CC[C@]3(C)C2=O)cc1
COLO 205 colon
  TGI: > 100 µM
HS 578T breast
  TGI: 30.5 µM
HT29 colon
  TGI: > 100 µM
LOX IMVI melanoma
  TGI: > 100 µM
NCI-H226 lung
  TGI: 67.3 µM
OVCAR-3 ovarian
  TGI: > 100 µM
RPMI-8226 leukemia
  TGI: > 100 µM
SF-268 CNS
  TGI: 61 µM
U251 CNS
  TGI: > 100 µM

## CCOC(=O)C[n+]1ccc2c([nH]c3cc(OC)ccc32)c1C
COLO 205 colon
  TGI: > 100 µM
HT29 colon
  TGI: > 100 µM
LOX IMVI melanoma
  TGI: > 100 µM
NCI-H226 lung
  TGI: > 100 µM
OVCAR-3 ovarian
  TGI: > 100 µM
RPMI-8226 leukemia
  TGI: > 100 µM
SF-268 CNS
  TGI: > 100 µM
U251 CNS
  TGI: > 100 µM

## COc1ccc(N2C(=O)/C(=C/c3ccc(N(CCC#N)CCC#N)cc3)N=C2c2ccccc2)c(OC)c1
786-0 renal
  TGI: > 100 µM
COLO 205 colon
  TGI: > 100 µM
HS 578T breast
  TGI: > 100 µM
HT29 colon
  TGI: > 100 µM
NCI-H226 lung
  TGI: > 100 µM
OVCAR-3 ovarian
  TGI: > 100 µM
RPMI-8226 leukemia
  TGI: > 100 µM
SF-268 CNS
  TGI: > 100 µM
U251 CNS
  TGI: > 100 µM

## Cc1ccc(S(=O)(=O)N2CCN(CCO)CCN(S(=O)(=O)c3ccc(C)cc3)CCN(CCO)CC2)cc1
786-0 renal
  TGI: 67 µM
COLO 205 colon
  TGI: 33.2 µM
HS 578T breast
  TGI: 93.4 µM
HT29 colon
  TGI: 26 µM
LOX IMVI melanoma
  TGI: 28.4 µM
NCI-H226 lung
  TGI: > 100 µM
OVCAR-3 ovarian
  TGI: 44.5 µM
SF-268 CNS
  TGI: > 100 µM
U251 CNS
  TGI: 72.3 µM

## c1cc2ccc1CNCCN1CCNCc3ccc(cc3)Oc3ccc(cc3)CNCCN(CCNCc3ccc(cc3)O2)CCNCc2ccc(cc2)Oc2ccc(cc2)CNCC1
OVCAR-3 ovarian
  GI50: 1.65 µM
  TGI: 3.05 µM
U251 CNS
  GI50: 0.682 µM
  TGI: 1.99 µM

## C/C(=C\c1ccccc1)C(=O)NCc1ccc(C(=O)NCCc2c[nH]c3ccccc23)cc1
786-0 renal
  TGI: > 100 µM
COLO 205 colon
  TGI: > 100 µM
HT29 colon
  TGI: > 100 µM
LOX IMVI melanoma
  TGI: > 100 µM
NCI-H226 lung
  TGI: > 100 µM
OVCAR-3 ovarian
  TGI: > 100 µM
RPMI-8226 leukemia
  TGI: > 100 µM
SF-268 CNS
  TGI: > 100 µM
U251 CNS
  TGI: > 100 µM

## CC(C)c1nccn1Cc1ccc(Cl)cc1Cl
786-0 renal
  TGI: > 100 µM
COLO 205 colon
  TGI: > 100 µM
HT29 colon
  TGI: > 100 µM
LOX IMVI melanoma
  TGI: > 100 µM
NCI-H226 lung
  TGI: 93.5 µM
OVCAR-3 ovarian
  TGI: > 100 µM
RPMI-8226 leukemia
  TGI: 57.8 µM
SF-268 CNS
  TGI: > 100 µM
U251 CNS
  TGI: > 100 µM

## O=C(O)CCCc1ccc2c(c1)CC1(C2)Cc2ccc(CCCC(=O)O)cc2C1
786-0 renal
  TGI: > 100 µM
COLO 205 colon
  TGI: > 100 µM
HS 578T breast
  TGI: > 100 µM
HT29 colon
  TGI: > 100 µM
LOX IMVI melanoma
  TGI: > 100 µM
NCI-H226 lung
  TGI: > 100 µM
OVCAR-3 ovarian
  TGI: > 100 µM
RPMI-8226 leukemia
  TGI: > 100 µM
U251 CNS
  TGI: > 100 µM

## NC1CCCCC1N.O=S(=O)([O-])CCCN1CCN(CCO)CC1.O=S(=O)([O-])CCCN1CCN(CCO)CC1.[Pt+4]
COLO 205 colon
  GI50: 1.82 µM
  TGI: 19.6 µM
HT29 colon
  GI50: 0.945 µM
  TGI: > 22.1 µM
LOX IMVI melanoma
  GI50: 5.97 µM
  TGI: > 100 µM
NCI-H226 lung
  GI50: 5.26 µM
  TGI: > 100 µM
OVCAR-3 ovarian
  GI50: 4.44 µM
  TGI: > 36.4 µM
RPMI-8226 leukemia
  GI50: 0.423 µM
  TGI: 20.5 µM
SF-268 CNS
  GI50: 3.72 µM
  TGI: > 78 µM
U251 CNS
  GI50: 14.9 µM
  TGI: > 100 µM

## C=C1C(=O)O[C@H]2C/C(C=O)=C\[C@H]3O[C@H]3/C(COC(=O)C(C)C)=C/CC12 (stereo partly drawn)
786-0 renal
  TGI: 10.7 µM
COLO 205 colon
  TGI: 5.91 µM
HS 578T breast
  TGI: 22 µM
HT29 colon
  TGI: 12.8 µM
LOX IMVI melanoma
  TGI: 11.8 µM
NCI-H226 lung
  TGI: 51.1 µM
OVCAR-3 ovarian
  TGI: 19.3 µM
RPMI-8226 leukemia
  TGI: 7.61 µM
U251 CNS
  TGI: 19.6 µM

## Cc1cccc(C(O)c2cccnc2)c1O (stereo not drawn)
COLO 205 colon
  TGI: > 100 µM
HS 578T breast
  TGI: > 100 µM
HT29 colon
  TGI: > 100 µM
LOX IMVI melanoma
  TGI: > 100 µM
NCI-H226 lung
  TGI: > 100 µM
OVCAR-3 ovarian
  TGI: > 100 µM
RPMI-8226 leukemia
  TGI: > 100 µM
SF-268 CNS
  TGI: > 100 µM
U251 CNS
  TGI: > 100 µM

## CC1(C)N=C(N)N=C(N)N1c1ccc(OCCCOc2ccccc2)c(Cl)c1
COLO 205 colon
  TGI: 15.1 µM
HT29 colon
  TGI: 10.5 µM
LOX IMVI melanoma
  TGI: 13.7 µM
NCI-H226 lung
  TGI: 15.4 µM
OVCAR-3 ovarian
  TGI: 14 µM
RPMI-8226 leukemia
  TGI: 28.9 µM
SF-268 CNS
  TGI: 13.5 µM
U251 CNS
  TGI: 11.2 µM

## O=C(NC/C=C/Br)NC1CCNc2ccccc21 (stereo not drawn)
786-0 renal
  TGI: 81.9 µM
COLO 205 colon
  TGI: 37.7 µM
HT29 colon
  TGI: 31.2 µM
LOX IMVI melanoma
  TGI: 56.8 µM
NCI-H226 lung
  TGI: > 100 µM
OVCAR-3 ovarian
  TGI: > 100 µM
RPMI-8226 leukemia
  TGI: 58.7 µM
SF-268 CNS
  TGI: > 100 µM
U251 CNS
  TGI: > 100 µM

## Cn1c(=O)c2sc3cc4c(cc3c2c2ccccc21)sc1c(=O)n(C)c2ccccc2c14
786-0 renal
  TGI: > 100 µM
COLO 205 colon
  TGI: > 100 µM
HS 578T breast
  TGI: > 100 µM
HT29 colon
  TGI: > 100 µM
NCI-H226 lung
  TGI: > 100 µM
OVCAR-3 ovarian
  TGI: > 100 µM
RPMI-8226 leukemia
  TGI: > 100 µM
SF-268 CNS
  TGI: > 100 µM
U251 CNS
  TGI: 43.6 µM

## CC1(C)O[C@@H](CP(c2cccc3ccccc23)c2cccc3ccccc23)[C@H](CP(c2cccc3ccccc23)c2cccc3ccccc23)O1
786-0 renal
  TGI: > 100 µM
COLO 205 colon
  TGI: > 100 µM
HT29 colon
  TGI: > 100 µM
LOX IMVI melanoma
  TGI: > 100 µM
NCI-H226 lung
  TGI: > 100 µM
OVCAR-3 ovarian
  TGI: > 100 µM
SF-268 CNS
  TGI: > 100 µM
U251 CNS
  TGI: > 100 µM

## Cc1ccc2cnc(N)c(C#Cc3cncc(C(=O)Nc4ccc(CN5CCN(C)CC5)c(C(F)(F)F)c4)c3)c2c1
COLO 205 colon
  GI50: 0.134 µM
  TGI: 0.723 µM
HS 578T breast
  GI50: 0.274 µM
  TGI: 1.39 µM
HT29 colon
  GI50: 0.106 µM
  TGI: 0.724 µM
LOX IMVI melanoma
  GI50: 0.289 µM
  TGI: 0.934 µM
OVCAR-3 ovarian
  GI50: 0.633 µM
  TGI: 1.29 µM
RPMI-8226 leukemia
  GI50: 0.693 µM
  TGI: 1.97 µM
SF-268 CNS
  GI50: 0.479 µM
  TGI: 1.27 µM
U251 CNS
  GI50: 0.59 µM
  TGI: 1.21 µM

## COC(=O)c1c(C#C[Si](C)(C)C)c(C#C[Si](C)(C)C)c(C#C[Si](C)(C)C)c(C#C[Si](C)(C)C)c1C(=O)OC
786-0 renal
  TGI: > 100 µM
COLO 205 colon
  TGI: > 100 µM
HS 578T breast
  TGI: > 100 µM
HT29 colon
  TGI: > 100 µM
NCI-H226 lung
  TGI: > 100 µM
OVCAR-3 ovarian
  TGI: > 100 µM
RPMI-8226 leukemia
  TGI: > 100 µM
SF-268 CNS
  TGI: > 100 µM
U251 CNS
  TGI: > 100 µM

## O=C1OC2C=CC1C1(CCOC1=O)C2 (stereo not drawn)
786-0 renal
  TGI: > 100 µM
COLO 205 colon
  TGI: > 100 µM
LOX IMVI melanoma
  TGI: > 100 µM
NCI-H226 lung
  TGI: > 100 µM
OVCAR-3 ovarian
  TGI: > 100 µM
RPMI-8226 leukemia
  TGI: > 100 µM
SF-268 CNS
  TGI: > 100 µM
U251 CNS
  TGI: > 100 µM

## CC1(C)CC2(C)OC(=N)C1(C#N)C2(C#N)C#N (stereo not drawn)
786-0 renal
  TGI: 16.7 µM
COLO 205 colon
  TGI: 14.9 µM
HS 578T breast
  TGI: 37.7 µM
HT29 colon
  TGI: 13.4 µM
LOX IMVI melanoma
  TGI: 3.09 µM
RPMI-8226 leukemia
  TGI: 23.7 µM
SF-268 CNS
  TGI: 33.8 µM
U251 CNS
  TGI: 29.3 µM
